Measured values: ChEMBL document CHEMBL4814046, “Inhibitory effects and mechanism of antifungal action of the natural cyclic depsipeptide, aureobasidin A against Cryptococcus neoformans” (Bioorg Med Chem Lett, 2021)
Values after ≈ are worked out from the molar mass of the structure shown. Active and inactive are the calls of the source. The calls are words filed in the database; no cut-off is given here. *1 amine or outer side, *2 acyl side, *3 side chain or, on linkers, in order; H or OH if unused. Where a SMILES comes first, the peptide text is derived from it. [ ]: non-standard residue; d: D form. X1 = CC[C@@H](C)[C@@H](O[*:1])C(=O)[*:2]; NMeVal(β-OH) = CN[C@H](C(=O)O)C(C)(C)O; NMeF = CN[C@@H](Cc1ccccc1)C(=O)O; aIle = CC[C@@H](C)[C@H](N)C(=O)O; NMeV = CN[C@H](C(=O)O)C(C)C

How the values were obtained:
Pichia kudriavzevii = test: Antifungal activity against Candida krusei incubated for 24 hrs by broth microdilution method; assay type: functional
[1] = Hemolytic activity in human RBC at 4 ug/ml incubated for 30 mins; assay type: cell-based, Erythrocyte; details: red blood cells (erythrocytes), at 4 µg/mL, read-out: Activity
[2] = Cytotoxicity against human HEK293 cells assessed as cell survival at 0.25 times MIC incubated for 24 hrs by MTT assay; assay type: cell-based; details: read-out: Activity
Cryptococcus neoformans [3] = test: Fungicidal activity against Cryptococcus neoformans PFCC 93-589 by broth microdilution assay; assay type: functional
Cryptococcus neoformans [4] = test: Antifungal activity against Cryptococcus neoformans PFCC 93-589 after 2 days in absence of sorbitol by microdilution assay; assay type: functional; details: PFCC 93-589, 48 h, time 2 day
Cryptococcus neoformans [5] = test: Antifungal activity against Cryptococcus neoformans PFCC 93-589 assessed as TOS production at 0.5 times MIC incubated for 10 mins measured per mg of protein by colorimetric method (reference value: 1.04 umol); assay type: functional
Candida albicans = test: Antifungal activity against Candida albicans incubated for 24 hrs by broth microdilution method; assay type: functional
Cryptococcus neoformans [6] = test: Induction of morphological changes in Cryptococcus neoformans PFCC 93-589 assessed as excessive vacuolization at 2 ug/ml after 48 hrs by TEM analysis; assay type: functional, organism-based; details: dose 2.0 µg/ml
Nakaseomyces glabratus = test: Antifungal activity against Candida glabrata incubated for 24 hrs by broth microdilution method; assay type: functional
[7] = Cytotoxicity against human HEK293 cells assessed as cell survival at 0.5 times MIC incubated for 24 hrs by MTT assay; assay type: cell-based; details: read-out: Activity
Cryptococcus neoformans [8] = test: Antifungal activity against Cryptococcus neoformans PFCC 93-589 after 7 days in presence of sorbitol by microdilution assay; assay type: functional; details: PFCC 93-589, 168 h, time 7 day
Cryptococcus neoformans [9] = test: Antifungal activity against Cryptococcus neoformans PFCC 93-589 assessed as TOS production at 2 times MIC incubated for 10 mins measured per mg of protein by colorimetric method (reference value: 1.63 umol); assay type: functional
Aspergillus fumigatus = test: Antifungal activity against Aspergillus fumigatus incubated for 48 hrs by broth microdilution method; assay type: functional
Aspergillus niger = test: Antifungal activity against Aspergillus niger incubated for 48 hrs by broth microdilution method; assay type: functional
Cryptococcus neoformans [10] = test: Downregulation of Cxt1p gene expression in Cryptococcus neoformans PFCC 93-589 assessed as fold decrease in […] at 2 ug/ml by SYBR green based RT-PCR analysis; assay type: functional; details: dose 2.0 µg/ml
Cryptococcus neoformans [11] = test: Induction of morphological changes in Cryptococcus neoformans PFCC 93-589 assessed as disorganization of cytoplasmic content at 2 ug/ml after 48 hrs by TEM analysis; assay type: functional, organism-based; details: dose 2.0 µg/ml
[12] = Hemolytic activity in human RBC at 0.5 ug/ml incubated for 30 mins; assay type: ADME, cell-based, Erythrocyte; details: red blood cells (erythrocytes), at 0.5 µg/mL, read-out: Activity
Cryptococcus neoformans [13] = test: Antifungal activity against Cryptococcus neoformans PFCC 93-589 by broth microdilution assay; assay type: functional
Cryptococcus neoformans [14] = test: Antifungal activity against Cryptococcus neoformans PFCC 93-589 assessed as inhibition of melanin production at 0.5 times MIC incubated for 2 to 10 days; assay type: functional, organism-based; details: time 2-10 day
Cryptococcus neoformans [15] = test: Inhibition of ergosterol biosynthesis in Cryptococcus neoformans PFCC 93-589 cell membrane assessed as ergosterol content at 1 times MIC incubated for 48 hrs by UV-visible spectrophotometric analysis (reference value: 0.134); assay type: functional, cell membranes
[16] = Cytotoxicity against human HEK293 cells assessed as cell survival at 1 times MIC incubated for 24 hrs by MTT assay; assay type: cell-based; details: read-out: Activity
Cryptococcus neoformans [17] = test: Inhibition of ergosterol biosynthesis in Cryptococcus neoformans PFCC 93-589 cell membrane assessed as ergosterol content at 0.5 times MIC incubated for 48 hrs by UV-visible spectrophotometric analysis (reference value: 0.134); assay type: functional, cell membranes
Cryptococcus neoformans [18] = test: Induction of morphological changes in Cryptococcus neoformans PFCC 93-589 assessed as deposition of lipid globules at 2 ug/ml after 48 hrs by TEM analysis; assay type: functional, organism-based; details: dose 2.0 µg/ml
Cryptococcus neoformans [19] = test: Antifungal activity against Cryptococcus neoformans PFCC 93-589 in presence of fluconazole by checkerboard microtiter assay; assay type: functional
Candida tropicalis = test: Antifungal activity against Candida tropicalis incubated for 24 hrs by broth microdilution method; assay type: functional
Cryptococcus neoformans [20] = test: Antifungal activity against Cryptococcus neoformans PFCC 93-589 after 2 days in presence of sorbitol by microdilution assay; assay type: functional; details: PFCC 93-589, 48 h, time 2 day
[21] = Cytotoxicity against human HEK293 cells assessed as inhibition of cell viability at 2 times MIC incubated for 24 hrs by MTT assay; assay type: cell-based; details: at 8 µg/mL, read-out: INH
[22] = Hemolytic activity in human RBC at 2 ug/ml incubated for 30 mins; assay type: ADME, cell-based, Erythrocyte; details: red blood cells (erythrocytes), at 2 µg/mL, read-out: Activity
Cryptococcus neoformans [23] = test: Downregulation of Cxt1p gene expression in Cryptococcus neoformans PFCC 93-589 at 2 ug/ml by SYBR green based RT-PCR analysis relative to control; assay type: functional; details: dose 2.0 µg/ml
[24] = Hemolytic activity in human RBC at 1 ug/ml incubated for 30 mins; assay type: ADME, cell-based, Erythrocyte; details: red blood cells (erythrocytes), at 1 µg/mL, read-out: Activity
[25] = Hemolytic activity in human RBC at 8 ug/ml incubated for 30 mins; assay type: ADME, cell-based, Erythrocyte; details: red blood cells (erythrocytes), at 8 µg/mL, read-out: Activity
Cryptococcus neoformans [26] = test: Inhibition of ergosterol biosynthesis in Cryptococcus neoformans PFCC 93-589 cell membrane at 1 times MIC incubated for 48 hrs by UV-visible spectrophotometric analysis; assay type: functional, cell membranes
Cryptococcus neoformans [27] = test: Antifungal activity against Cryptococcus neoformans PFCC 93-589 assessed as TOS production at 1 times MIC incubated for 10 mins measured per mg of protein by colorimetric method (reference value: 1.19 umol); assay type: functional
Aspergillus flavus = test: Antifungal activity against Aspergillus flavus incubated for 48 hrs by broth microdilution method; assay type: functional
Cryptococcus neoformans [28] = test: Upregulation of Lac1 gene expression in Cryptococcus neoformans PFCC 93-589 assessed as fold increase in […] at 2 ug/ml by SYBR green based RT-PCR analysis; assay type: functional; details: dose 2.0 µg/ml
Cryptococcus neoformans [29] = test: Inhibition of ergosterol biosynthesis in Cryptococcus neoformans PFCC 93-589 cell membrane at 0.5 times MIC incubated for 48 hrs by UV-visible spectrophotometric analysis; assay type: functional, cell membranes
Cryptococcus neoformans [30] = test: Antifungal activity against Cryptococcus neoformans PFCC 93-589 assessed as increase in extracellular potassium leakage at 2 times MIC incubated up to 12 hrs measured per mg dry weight of cell by spectrophotometric method; assay type: functional; details: time hrs <=12
Cryptococcus neoformans [31] = test: Antifungal activity against Cryptococcus neoformans PFCC 93-589 after 7 days in absence of sorbitol by microdilution assay; assay type: functional; details: PFCC 93-589, 168 h, time 7 day
Candida parapsilosis = test: Antifungal activity against Candida parapsilosis incubated for 24 hrs by broth microdilution method; assay type: functional; details: Lodderomyces parapsilosis
Cryptococcus neoformans [32] = test: Synergistic antifungal activity against Cryptococcus neoformans PFCC 93-589 assessed as fractional inhibitory concentration index in presence of fluconazole by checkerboard microtiter assay; assay type: functional
Cryptococcus neoformans [33] = test: Antifungal activity against Cryptococcus neoformans PFCC 93-589 assessed as half minimum inhibitory concentration by broth microdilution assay; assay type: functional
Cryptococcus neoformans [34] = test: Downregulation of Cxt1p gene expression in Cryptococcus neoformans PFCC 93-589 at 4 ug/ml by SYBR green based RT-PCR analysis; assay type: functional; details: dose 4.0 µg/ml
[35] = Hemolytic activity in human RBC at 16 ug/ml incubated for 30 mins; assay type: ADME, cell-based, Erythrocyte; details: red blood cells (erythrocytes), at 16 µg/mL, read-out: Activity
Cryptococcus neoformans [36] = test: Induction of morphological changes in Cryptococcus neoformans PFCC 93-589 assessed as disintegration and loosening of cell membrane at 4 ug/ml after 48 hrs by TEM analysis; assay type: functional, organism-based; details: dose 4.0 µg/ml
Cryptococcus neoformans [37] = test: Upregulation of Lac1 gene expression in Cryptococcus neoformans PFCC 93-589 at 4 ug/ml by SYBR green based RT-PCR analysis; assay type: functional; details: dose 4.0 µg/ml
Cryptococcus neoformans [38] = test: Induction of morphological changes in Cryptococcus neoformans PFCC 93-589 assessed as disorganization of cytoplasmic content at 4 ug/ml after 48 hrs by TEM analysis; assay type: functional, organism-based; details: dose 4.0 µg/ml
Cryptococcus neoformans [39] = test: Antifungal activity against Cryptococcus neoformans PFCC 93-589 in presence of Aureobasidin-A by checkerboard microtiter assay; assay type: functional
[40] = Cytotoxicity against human HEK293 cells assessed as cell viability at 2 times MIC incubated for 24 hrs by MTT assay; assay type: cell-based; details: read-out: Activity

## CC[C@@H](C)[C@@H]1NC(=O)[C@@H]2CCCN2C(=O)[C@H](Cc2ccccc2)N(C)C(=O)[C@H](Cc2ccccc2)NC(=O)[C@H](C(C)C)N(C)C(=O)[C@@H]([C@H](C)CC)OC(=O)[C@H](C(C)(C)O)N(C)C(=O)[C@H](CC(C)C)NC(=O)[C@H](C(C)C)N(C)C1=O [AUREOBASIDIN A] (cyclo(F[NMeF]P[aIle][NMeV]L[NMeVal(β-OH)][X1][NMeV]))
Pichia kudriavzevii
  MIC: < 2000 µg/mL
[1]
  hemolysis at 0.5 h, 4 ug/ml: 1.35%
[2]
  viability at 24 h, 0.25 times MIC: 98%
Cryptococcus neoformans [3]
  MFC: 8 µg/mL (≈ 7.26 µM)
Cryptococcus neoformans [4]
  MIC: 8 µg/mL (≈ 7.26 µM)
Cryptococcus neoformans [5]
  Activity: 1.46 nmol
Candida albicans
  MIC: < 2000 µg/mL
Cryptococcus neoformans [6]
  Activity: Active
Nakaseomyces glabratus
  MIC: < 2000 µg/mL
[7]
  viability at 24 h, 0.5 times MIC: 89%
Cryptococcus neoformans [8]
  MIC: 16 µg/mL
Cryptococcus neoformans [9]
  Activity: 3.09 nmol
Aspergillus fumigatus
  MIC: > 50000 µg/mL
Aspergillus niger
  MIC: 800 µg/mL (≈ 726 µM)
Cryptococcus neoformans [10]
  fold change (FC): 0.2
Cryptococcus neoformans [11]
  Activity: Active
[12]
  hemolysis at 0.5 h, 0.5 ug/ml: 0%
Cryptococcus neoformans [13]
  MIC: 4 µg/mL (≈ 3.63 µM)
Cryptococcus neoformans [14]
  Activity: Active
Cryptococcus neoformans [15]
  Activity: 0.078
[16]
  viability at 24 h, 1 times MIC: 75%
Cryptococcus neoformans [17]
  Activity: 0.095
Cryptococcus neoformans [18]
  Activity: Active
Cryptococcus neoformans [19]
  MIC: 1 µg/mL
Candida tropicalis
  MIC: < 2000 µg/mL
Cryptococcus neoformans [20]
  MIC: 8 µg/mL
[21]
  cytotoxicity at 24 h, 2 times MIC: 40%
[22]
  hemolysis at 0.5 h, 2 ug/ml: 0.65%
Cryptococcus neoformans [23]
  inhibition: 80%
[24]
  hemolysis at 0.5 h, 1 ug/ml: 0.31%
[25]
  hemolysis at 0.5 h, 8 ug/ml: 2.4%
Cryptococcus neoformans [26]
  inhibition: 41.8%
Cryptococcus neoformans [27]
  Activity: 2.12 nmol
Aspergillus flavus
  MIC: > 50000 µg/mL
Cryptococcus neoformans [28]
  fold change (FC): 11.7
Cryptococcus neoformans [29]
  inhibition: 29.1%
Cryptococcus neoformans [30]
  Activity: 2.51 mM
Cryptococcus neoformans [31]
  MIC: 16 µg/mL (≈ 14.5 µM)
Candida parapsilosis
  MIC: < 2000 µg/mL
Cryptococcus neoformans [32]
  fractional inhibitory concentration index (FICI): 0.26
Cryptococcus neoformans [33]
  MIC: 2 µg/mL (≈ 1.82 µM)

## OC(Cn1cncn1)(Cn1cncn1)c1ccc(F)cc1F [FLUCONAZOLE]
[1]
  hemolysis at 0.5 h, 4 ug/ml: 34%
[2]
  viability at 24 h, 0.25 times MIC: 99.9%
Cryptococcus neoformans [3]
  MFC: 16 µg/mL (≈ 52.2 µM)
Cryptococcus neoformans [4]
  MIC: 16 µg/mL (≈ 52.2 µM)
[7]
  viability at 24 h, 0.5 times MIC: 97.9%
Cryptococcus neoformans [8]
  MIC: 64 µg/mL
Cryptococcus neoformans [13]
  MIC: 8 µg/mL (≈ 26.1 µM)
Cryptococcus neoformans [14]
  Activity: Active
Cryptococcus neoformans [34]
  inhibition: inactive
Cryptococcus neoformans [15]
  Activity: 0.047
[16]
  viability at 24 h, 1 times MIC: 95.5%
[35]
  hemolysis at 0.5 h, 16 ug/ml: 53%
Cryptococcus neoformans [17]
  Activity: 0.055
Cryptococcus neoformans [36]
  Activity: Active
Cryptococcus neoformans [20]
  MIC: 16 µg/mL
[22]
  hemolysis at 0.5 h, 2 ug/ml: 29%
[24]
  hemolysis at 0.5 h, 1 ug/ml: 18%
[25]
  hemolysis at 0.5 h, 8 ug/ml: 42%
Cryptococcus neoformans [26]
  inhibition: 64.9%
Cryptococcus neoformans [37]
  Activity: inactive
Cryptococcus neoformans [29]
  inhibition: 59%
Cryptococcus neoformans [31]
  MIC: 64 µg/mL (≈ 209 µM)
Cryptococcus neoformans [38]
  Activity: Active
Cryptococcus neoformans [39]
  MIC: 0.5 µg/mL
[40]
  viability at 24 h, 2 times MIC: 88.6%
Cryptococcus neoformans [33]
  MIC: 4 µg/mL (≈ 13.1 µM)
